This is an account of results in patent US10167300B2, “Metalloenzyme inhibitor compounds as fungicides” (priority 2014, dated 2019).

Assay type in all cases: in vivo, Mycosphaerella graminicola on wheat plants (variety Yuma)
Test [1] can be described thus: Type B (low volume, EC formulation, track sprayer 200 L/ha) assay, leaf blotch of wheat, SEPTTR field isolate (FI SEPTTR). As to conditions: Zymoseptoria tritici, 72 h. The method in brief:
(§1)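 Wheat seedlings (Yuma, first leaf emerged) sprayed with acetone/Triton X-100 solutions (Type A) or 10% EC diluted in 0.1% Trycol at 200 L/ha (Type B), inoculated before or after spraying. Inoculated plants held 3 days at 20 °C, 100% RH, then greenhouse; % disease control from severity versus untreated plants.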

The test system of test [2] is Mycosphaerella graminicola; Anamorph: Septoria tritici; Bayer Code SEPTTR (standard laboratory isolate, SI SEPTTR). As to the kind of experiment: Type B (low volume, EC formulation, track sprayer 200 L/ha) assay, leaf blotch of wheat, standard laboratory SEPTTR isolate (SI SEPTTR). As to conditions: Zymoseptoria tritici, 72 h. The procedure: Example A: Evaluation of Fungicidal Activity: Leaf Blotch of Wheat (Mycosphaerella graminicola; Anamorph: Septoria tritici; Bayer Code SEPTTR)
For Type A assays, technical grades of the experimental fungicides in Table 4 below were dissolved in acetone, and then mixed with nine volumes of water containing 110 ppm Triton X-100. The fungicide solutions were applied onto wheat seedlings using an automated booth sprayer. For Type B assays, emulsifiable concentrate (EC) formulations of technical grades of the experimental fungicides in Table 4 below were prepared at 10% (w/v), and then mixed with 150 volumes of 0.1% Trycol 5941. These solutions were applied onto wheat seedlings using an automated track sprayer at 200 L/ha. All sprayed plants were allowed to air dry prior to further handling.
Wheat plants (variety Yuma) were grown from seed in a greenhouse in 50% mineral soil/50% soil-less Metro mix until the first leaf was fully emerged, with 7-10 seedlings per pot. Prior to or after application of experimental fungicides, plants were inoculated either with spores of a standard laboratory SEPTTR isolate (SI SEPTTR) or with spores from a SEPTTR field isolate collected from Wellsbourne, England in 2012 (FI SEPTTR). After inoculation the plants were kept for 3 days at 20° C. in 100% relative humidity (one day in a dark dew chamber followed by two days in a lighted dew chamber). Plants were then transferred to a 20° C. greenhouse for disease development. When disease symptoms were fully expressed on untreated plants, infection levels on treated plants were assessed on a scale of 0 to 100 percent disease severity. Percent disease control was calculated using the ratio of disease severity on treated plants relative to untreated plants.

The test system is the same in test [3]. As to the kind of experiment: Type A (high volume) assay, leaf blotch of wheat, standard laboratory SEPTTR isolate (SI SEPTTR). The note with it: for pest or weed control at 50 ppm: Zymoseptoria tritici. In a few lines:
as §1

[4] abbreviates: field isolate, low volume EC, 100 g/ha, 3 Day Curative, wheat (Yuma), read-out: Disease Control, FI SEPTTR Type B Assay (100 g/ha) 3 DC.
Setting [5] is: field isolate, low volume EC, 100 g/ha, 3 Day Protectant, wheat (Yuma), read-out: Disease Control, FI SEPTTR Type B Assay (100 g/ha) 3 DP.
Where [6] appears, read: standard laboratory isolate, low volume EC, 100 g/ha, 3 Day Curative, wheat (Yuma), read-out: Disease Control, SI SEPTTR Type B Assay (100 g/ha) 3 DC.
The mark [7] stands for this setting: standard laboratory isolate, low volume EC, 100 g/ha, 3 Day Protectant, wheat (Yuma), read-out: Disease Control, SI SEPTTR Type B Assay (100 g/ha) 3 DP.
Setting [8] is: 24 h, standard laboratory isolate, high volume, 50 ppm, 1 Day Protectant, wheat (Yuma), read-out: Disease Control, SI SEPTTR Type A Assay (50 ppm) 1 DP.
Where [9] appears, read: 72 h, standard laboratory isolate, high volume, 50 ppm, 3 Day Curative, wheat (Yuma), read-out: Disease Control, SI SEPTTR Type A Assay (50 ppm) 3 DC.

Molecules are shown by their SMILES. Like-named read-outs stand apart in the source and are kept apart here.

Take `CC(C)(C)C(O)(c1cccnc1)c1ccc(-c2ccc(OC(F)F)cc2)cn1` (centres unmarked) [Compound 82]: the pest or weed control at 100 g/ha in test [1] (setting [4]), in test [1] (setting [5]), in test [2] (setting [6]) and in test [2] (setting [7]) was 80 to 100% throughout. Also, the pest or weed control at 50 ppm in test [3] (setting [8]) fell in the range of 80 to 100%.

Turning to `OC(c1cccnc1)(c1ccc(-c2ccc(OC(F)(F)F)cc2)cn1)C1CC1` (centres unmarked) [Compound 78], the pest or weed control at 100 g/ha lay in the range of 60 to 79% in test [1] (setting [4]), 60 to 79% in test [1] (setting [5]), 80 to 100% in test [2] (setting [6]) and 80 to 100% in test [2] (setting [7]). Moreover, the pest or weed control at 50 ppm in test [3] (setting [8]) lay within 80 to 100%.

`Cn1cc(-c2ccc(C(O)(c3cncnc3)C(C)(C)C)nc2)cn1` (centres unmarked) [Compound 122]: the pest or weed control at 100 g/ha was in the range of 60 to 79% in test [1] (setting [4]), 60 to 79% in test [1] (setting [5]), 80 to 100% in test [2] (setting [6]) and 80 to 100% in test [2] (setting [7]). Moreover, the pest or weed control at 50 ppm in test [3] (setting [8]) was 80 to 100%.

For `CC(C)C(O)(c1cncnc1)c1ccc(Oc2ccc(Cl)cn2)cn1` (centres unmarked) [Compound 13], the pest or weed control at 100 g/ha in test [1] (setting [4]) was 40 to 59%; in test [1] (setting [5]) it was 60 to 79%; in test [2] (setting [6]) it was 60 to 79%; in test [2] (setting [7]), 80 to 100%. Besides, the pest or weed control at 50 ppm in test [3] (setting [8]) and in test [3] (setting [9]) was 80 to 100% each time.

As for `CC(C)(C)C(O)(c1cncnc1)c1ccc(-c2ccc(C3(C#N)CC3)cc2)cn1` (centres unmarked) [Compound 105], the pest or weed control at 100 g/ha in test [1] (setting [4]), in test [1] (setting [5]), in test [2] (setting [6]) and in test [2] (setting [7]) was 80 to 100% each time. Further, the pest or weed control at 50 ppm in test [3] (setting [8]) was in the range of 80 to 100%.

As for `CC(C)(C)C(O)(c1cncnc1)c1ccc(-c2ccc([Si](C)(C)C)cc2)cn1` (centres unmarked) [Compound 121], the pest or weed control at 100 g/ha in test [1] (read-out: Disease Control, FI SEPTTR Type B Assay (100 g/ha) 3 DC) was 80 to 100%; in test [1] (read-out: Disease Control, FI SEPTTR Type B Assay (100 g/ha) 3 DP), 60 to 79%; in test [2] (read-out: Disease Control, SI SEPTTR Type B Assay (100 g/ha) 3 DC), 80 to 100%; in test [2] (read-out: Disease Control, SI SEPTTR Type B Assay (100 g/ha) 3 DP), 80 to 100%. Further, the pest or weed control at 50 ppm in test [3] (24 h, read-out: Disease Control, SI SEPTTR Type A Assay (50 ppm) 1 DP) lay within 80 to 100%.

With `Cc1ncncc1C(O)(c1ccc(-c2ccc(OC(F)(F)F)cc2)cn1)C(C)(C)C` (centres unmarked) [Compound 118], the pest or weed control at 100 g/ha in test [1] (setting [4]), in test [1] (setting [5]), in test [2] (setting [6]) and in test [2] (setting [7]) was 80 to 100% each time. For the same compound, the pest or weed control at 50 ppm in test [3] (setting [8]) lay in the range of 80 to 100%.

As to `Cc1cc(OC(F)(F)F)ccc1-c1ccc(C(O)(c2cccnc2)C(C)(C)C)nc1` (centres unmarked) [Compound 146], the pest or weed control at 100 g/ha in test [1] (setting [4]) was in the range of 80 to 100%; in test [1] (setting [5]) it was 60 to 79%; in test [2] (setting [6]), 80 to 100%; in test [2] (setting [7]) it was 80 to 100%. For the same compound, the pest or weed control at 50 ppm in test [3] (setting [8]) lay in the range of 80 to 100%.

With `CC(C)C(O)(c1cncnc1)c1ccc(-c2ccc(OCC(F)(F)F)nc2)cn1` (centres unmarked) [Compound 64], the pest or weed control at 100 g/ha is 60 to 79% in test [1] (setting [4]), 80 to 100% in test [1] (setting [5]), 80 to 100% in test [2] (setting [6]) and 80 to 100% in test [2] (setting [7]). The pest or weed control at 50 ppm in test [3] (setting [8]) and in test [3] (setting [9]) was 80 to 100% each time.

For `OC(c1cncnc1)(c1ccc(-c2ccc(OC(F)F)cc2)cn1)C1CC1` (centres unmarked) [Compound 60], the pest or weed control at 100 g/ha was < 40% in test [1] (setting [4]), 60 to 79% in test [1] (setting [5]), 80 to 100% in test [2] (setting [6]) and 80 to 100% in test [2] (setting [7]). In addition, the pest or weed control at 50 ppm in test [3] (setting [8]) and in test [3] (setting [9]) was 80 to 100% each time.

For `OC(Cc1cncnc1)(c1ccc(-c2ccc(Cl)cc2)cn1)C1CC1` (centres unmarked) [Compound 39], the pest or weed control at 100 g/ha in test [1] (setting [4]) fell in the range of 60 to 79%; in test [1] (setting [5]), 40 to 59%; in test [2] (setting [6]), 80 to 100%; in test [2] (setting [7]), 80 to 100%. Also, the pest or weed control at 50 ppm in test [3] (setting [8]) and in test [3] (setting [9]) was 80 to 100% each time.

Consider `Cc1cc(-c2ccc(CC(F)(F)F)nc2)cnc1C(O)(c1cncnc1)C(C)(C)C` (centres unmarked) [Compound 131], for which the pest or weed control at 100 g/ha is 60 to 79% in test [1] (setting [4]), 60 to 79% in test [1] (setting [5]), 80 to 100% in test [2] (setting [6]) and 60 to 79% in test [2] (setting [7]). Moreover, the pest or weed control at 50 ppm in test [3] (setting [8]) lay in the range of 80 to 100%.

Consider `CC(C)(C)C(O)(c1cncnc1)c1ccc(-c2ccc(C#N)cc2)cn1` (centres unmarked) [Compound 88], for which the pest or weed control at 100 g/ha in test [1] (setting [4]), in test [1] (setting [5]), in test [2] (setting [6]) and in test [2] (setting [7]) was 80 to 100% each time. Further, the pest or weed control at 50 ppm in test [3] (setting [8]) fell in the range of 80 to 100%.

On to `CSc1ccc(-c2ccc(C(O)(c3cncnc3)C(C)(C)C)nc2)cc1` (centres unmarked) [Compound 98], for which the pest or weed control at 100 g/ha in test [1] (setting [4]), in test [1] (setting [5]), in test [2] (setting [6]) and in test [2] (setting [7]) was 80 to 100% in each case. Moreover, the pest or weed control at 50 ppm in test [3] (setting [8]) is 80 to 100%.

`CC(C)C(O)(c1cncnc1)c1ccc(-c2ccc(OC(F)(F)F)cc2)cn1` (centres unmarked) [Compound 63]: the pest or weed control at 100 g/ha in test [1] (setting [4]) fell in the range of 40 to 59%; in test [1] (setting [5]) it was 60 to 79%; in test [2] (setting [6]), 80 to 100%; in test [2] (setting [7]), 80 to 100%. The pest or weed control at 50 ppm in test [3] (setting [8]) and in test [3] (setting [9]) was 80 to 100% each time.

On to `CC(C)(C)C(O)(c1cncnc1)c1ccc(-c2ccc(C(F)(F)F)nc2)cn1` (centres unmarked) [Compound 107], for which the pest or weed control at 100 g/ha in test [1] (setting [4]) was in the range of 80 to 100%; in test [1] (setting [5]), 60 to 79%; in test [2] (setting [6]), 80 to 100%; in test [2] (setting [7]) it was 60 to 79%. Besides, the pest or weed control at 50 ppm in test [3] (setting [8]) lay within 80 to 100%.

Consider `CC(C)(C)C(O)(c1cccnc1)c1ccc(-c2ccc(OCC(F)(F)F)cc2)cn1` (centres unmarked) [Compound 92], for which the pest or weed control at 100 g/ha in test [1] (setting [4]), in test [1] (setting [5]), in test [2] (setting [6]) and in test [2] (setting [7]) was 80 to 100% in each case. In test [3] (setting [8]), the pest or weed control at 50 ppm fell in the range of 80 to 100%.

On to `CC(C)C(O)(c1cncnc1)c1ccc(Oc2ccc(C(F)(F)F)cc2)cn1` (centres unmarked) [Compound 3, 2-methyl-1-(pyrimidin-5-yl)-1-(5-(4-(trifluoromethyl)-phenoxy)pyridin-2-yl)propan-1-ol], for which the pest or weed control at 100 g/ha in test [1] (setting [4]) lay in the range of 60 to 79%; in test [1] (setting [5]) it was 40 to 59%; in test [2] (setting [6]), 80 to 100%; in test [2] (setting [7]), 80 to 100%. Besides, in test [3] (setting [9]), the pest or weed control at 50 ppm was 80 to 100%. In addition, the “Disease Control, SI SEPTTR Type A Assay (50 ppm) 1 DP” value in test [3] (standard laboratory isolate, high volume, 50 ppm, 1 Day Protectant, wheat (Yuma)) is reported as “D (<40)”.

For the compound `CC(C)(C)C(O)(Cc1cncnc1)c1ccc(-c2ccc(OC(F)(F)F)cc2)cn1` (centres unmarked) [Compound 74], the pest or weed control at 100 g/ha in test [1] (setting [4]) is 40 to 59%; in test [1] (setting [5]), < 40%; in test [2] (setting [6]), 80 to 100%; in test [2] (setting [7]), 80 to 100%. The pest or weed control at 50 ppm in test [3] (setting [8]) is 80 to 100%.
